Results on one molecule are retold here after PMC3623961, “A Comparative Study of Interaction of Tetracycline with Several Proteins Using Time Resolved Anisotropy, Phosphorescence, Docking and FRET” (PLoS ONE, 2013).

Counter-ions that a name gives are not always drawn.

The target of assay [1] is T1, Bovine serum albumin (BSA) (Bos taurus, UniProt P02769).
T1 construct: gene ALB; mature serum albumin, 17 disulfides, Trp134 and Trp213; purchased from Sigma-Aldrich
Nature of the assay: fluorescence enhancement of bound tetracycline, modified Benesi-Hildebrand. The conditions noted are these: read-out: Binding Constant (M^-1) (converted). The source says:
fluorescence enhancement of bound tetracycline, modified Benesi-Hildebrand on Bovine serum albumin (BSA)

The target in assay [2] is T2, Human serum albumin (HSA) (Homo sapiens, UniProt P02768).
T2 construct: gene ALB; mature serum albumin, 585 amino acids, 17 disulfides, single Trp214; purchased from Sigma-Aldrich
T2 sequence (P02768 25-609): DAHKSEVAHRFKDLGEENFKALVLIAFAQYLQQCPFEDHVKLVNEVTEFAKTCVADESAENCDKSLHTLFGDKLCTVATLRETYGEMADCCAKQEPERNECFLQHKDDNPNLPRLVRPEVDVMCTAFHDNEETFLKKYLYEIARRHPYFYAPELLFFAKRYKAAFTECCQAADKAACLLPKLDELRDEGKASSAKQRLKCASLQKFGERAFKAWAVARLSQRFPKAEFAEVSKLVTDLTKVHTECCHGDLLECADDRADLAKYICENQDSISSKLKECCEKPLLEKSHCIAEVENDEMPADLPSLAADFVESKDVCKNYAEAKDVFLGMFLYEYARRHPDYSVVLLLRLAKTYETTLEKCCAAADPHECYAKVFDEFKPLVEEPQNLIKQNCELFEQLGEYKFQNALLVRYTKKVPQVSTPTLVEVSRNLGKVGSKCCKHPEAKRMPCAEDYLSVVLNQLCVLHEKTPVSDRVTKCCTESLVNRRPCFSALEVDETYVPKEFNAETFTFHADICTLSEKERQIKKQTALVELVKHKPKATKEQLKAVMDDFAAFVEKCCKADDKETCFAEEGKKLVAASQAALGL
The assay is described as above. The conditions noted are these: read-out: Binding Constant (M^-1) (converted). The text has this: fluorescence enhancement of bound tetracycline, modified Benesi-Hildebrand on Human serum albumin (HSA)

T1 sequence (P02769 25-607): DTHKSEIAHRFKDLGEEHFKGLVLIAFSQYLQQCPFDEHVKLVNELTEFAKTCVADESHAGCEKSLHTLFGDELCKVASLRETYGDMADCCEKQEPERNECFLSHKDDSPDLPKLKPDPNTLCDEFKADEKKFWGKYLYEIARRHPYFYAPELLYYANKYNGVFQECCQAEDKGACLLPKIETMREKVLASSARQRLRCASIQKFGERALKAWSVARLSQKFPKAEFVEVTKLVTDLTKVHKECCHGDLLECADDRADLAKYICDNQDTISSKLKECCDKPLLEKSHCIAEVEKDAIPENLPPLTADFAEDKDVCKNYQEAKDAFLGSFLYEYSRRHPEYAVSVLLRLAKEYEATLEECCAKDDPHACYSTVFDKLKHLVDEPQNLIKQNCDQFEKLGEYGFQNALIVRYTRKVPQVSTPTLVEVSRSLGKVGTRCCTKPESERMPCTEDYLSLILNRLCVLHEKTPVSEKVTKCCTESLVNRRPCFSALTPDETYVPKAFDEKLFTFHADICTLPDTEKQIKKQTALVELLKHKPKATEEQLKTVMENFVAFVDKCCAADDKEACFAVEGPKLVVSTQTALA

As to `CN(C)[C@@H]1C(O)=C(C(N)=O)C(=O)[C@@]2(O)C(O)=C3C(=O)c4c(O)cccc4[C@@](C)(O)[C@H]3C[C@@H]12` [Tetracycline hydrochloride], the values for the Kd in assay [1] and in assay [2] were 21.2 µM and 31.8 µM, respectively.
